Results: publication PMC3351444, “Molecular Evolution of a Peptide GPCR Ligand Driven by Artificial Neural Networks” (PLoS ONE, 2012)
Square brackets hold non-standard residues; d marks the D form. Ends that are not written are not given here. Peptide text beside a SMILES is read from it.

Tests used:
[1] = In vitro peptide stability in human serum (RP-HPLC); conditions: for half-life at 50 µg/mL: human, human serum, 25% (v/v) in RPMI
human CMKLR1 = target: T1, human CMKLR1 (Homo sapiens, UniProt Q99788); experiment: Ca2+ mobilization (CellLux imaging) agonist assay in HEK293A cells expressing CMKLR1 and Gα15; type: cell-based; conditions: Ca2+ mobilization, CMKLR1, decimal comma; for EC50: NR where no EC50 is given, read-out: EC50
T1 construct: host or cells: HEK293A (Invitrogen), stably expressing human Gα15
T1 sequence (Q99788 1-373): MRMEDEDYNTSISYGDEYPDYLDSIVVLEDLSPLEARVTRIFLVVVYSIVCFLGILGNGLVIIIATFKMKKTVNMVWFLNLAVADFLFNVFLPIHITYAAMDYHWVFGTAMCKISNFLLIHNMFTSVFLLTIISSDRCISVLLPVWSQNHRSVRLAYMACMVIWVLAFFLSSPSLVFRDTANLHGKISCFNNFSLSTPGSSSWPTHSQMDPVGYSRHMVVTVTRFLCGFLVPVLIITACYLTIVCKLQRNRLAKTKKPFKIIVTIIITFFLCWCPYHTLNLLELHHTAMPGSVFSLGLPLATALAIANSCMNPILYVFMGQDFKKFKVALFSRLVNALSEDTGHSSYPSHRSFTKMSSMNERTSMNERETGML
Method in brief: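 Agonist-evoked Ca2+ rise, read as FLUO4-AM fluorescence by imaging, in HEK293A cells carrying CMKLR1 plus Gα15. Peptides were diluted in C1 solution (pH 7.4) containing 0.1% BSA. Duplicate signals were averaged, corrected for buffer wells and normalized to background, and EC50 was fitted from amplitude versus concentration.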

half-life at 50 µg/mL [1] [min]	max response (human CMKLR1)	EC50 (human CMKLR1) [nM]	t1/2 ([1]; metabolic stability in human serum) [min]	Compound
30	1,07 DF/F0	8.93		CC(C)C[C@H](NC(=O)[C@@H](N)Cc1ccc(O)cc1)C(=O)N1CCC[C@H]1C(=O)NCC(=O)N[C@@H](CCC(N)=O)C(=O)N[C@@H](Cc1ccccc1)C(=O)N[C@@H](C)C(=O)N[C@H](Cc1ccccc1)C(=O)N[C@@H](Cc1ccccc1)C(=O)O [compound 42] (H-YLPGQFA[dF]F-OH; N-terminus assumed)
	1,75 DF/F0		110	CC(C)C[C@H](NC(=O)[C@@H](N)Cc1ccc(O)cc1)C(=O)N1CCC[C@H]1C(=O)N[C@H](C)C(=O)N[C@@H](CCC(N)=O)C(=O)N[C@@H](Cc1ccc(O)cc1)C(=O)N[C@@H](C)C(=O)N[C@@H](Cc1ccccc1)C(=O)N[C@H](CO)C(=O)O [compound 124] (H-YLP[dA]QYAF[dS]-OH; N-terminus assumed)
80	1,73 DF/F0	246		CC(C)C[C@H](NC(=O)[C@H](N)Cc1ccc(O)cc1)C(=O)N1CCC[C@@H]1C(=O)NCC(=O)N[C@@H](CCC(N)=O)C(=O)N[C@@H](Cc1ccc(O)cc1)C(=O)N[C@@H](C)C(=O)N[C@@H](Cc1ccccc1)C(=O)N[C@@H](CO)C(=O)O [compound 104] (H-[dY]L[dP]GQYAFS-OH; N-terminus assumed)
97	1,4 DF/F0	75		CC(C)C[C@H](NC(=O)[C@H](C)NC(=O)[C@H](Cc1ccc(O)cc1)NC(=O)[C@@H](Cc1ccc(O)cc1)NC(=O)CNC(=O)[C@@H]1CCCN1C(=O)[C@H](CC(C)C)NC(=O)[C@@H](N)Cc1ccc(O)cc1)C(=O)N[C@H](Cc1ccccc1)C(=O)O [compound 136] (H-YLPG[dY]YAL[dF]-OH; N-terminus assumed)
26	0,93 DF/F0	567		FLPGQYAFK-OH [compound 64]
42	1,69 DF/F0	14.3		CC(C)C[C@H](NC(=O)[C@@H](N)Cc1ccc(O)cc1)C(=O)N1CCC[C@H]1C(=O)NCC(=O)N[C@@H](CCC(N)=O)C(=O)N[C@@H](Cc1ccc(O)cc1)C(=O)N[C@@H](C)C(=O)N1CCC[C@@H]1C(=O)N[C@H](Cc1ccccc1)C(=O)O [compound 125] (H-YLPGQYA[dP][dF]-OH; N-terminus assumed)
47	1,33 DF/F0	21		CC(C)C[C@H](NC(=O)[C@@H](N)Cc1ccc(O)cc1)C(=O)N1CCC[C@H]1C(=O)NCC(=O)N[C@@H](CCC(N)=O)C(=O)N[C@@H](Cc1ccc(O)cc1)C(=O)N[C@H](Cc1c[nH]c2ccccc12)C(=O)N1CCC[C@H]1C(=O)N[C@H](Cc1ccccc1)C(=O)O [compound 126] (H-YLPGQY[dW]P[dF]-OH; N-terminus assumed)
32	1,74 DF/F0	207		CC(C)C[C@H](NC(=O)[C@H](Cc1ccc(O)cc1)NC(=O)[C@H](CCC(N)=O)NC(=O)[C@@H](Cc1ccccc1)NC(=O)[C@@H](CC(=O)O)NC(=O)[C@@H]1CCCN1C(=O)[C@H](CC(C)C)NC(=O)[C@@H](N)Cc1ccc(O)cc1)C(=O)N1CCC[C@H]1C(=O)O [compound 148] (H-YLP[dD][dF]QYLP-OH; N-terminus assumed)
16	1,7 DF/F0	1650		FLFGFQFAY-OH [compound 109]
612	1,49 DF/F0	105		CC(C)C[C@@H](NC(=O)[C@H](Cc1c[nH]cn1)NC(=O)[C@H](N)CO)C(=O)NCC(=O)N[C@@H](CCC(N)=O)C(=O)N[C@@H](Cc1ccc(O)cc1)C(=O)N[C@@H](C)C(=O)N[C@@H](Cc1ccccc1)C(=O)N[C@H](Cc1ccccc1)C(=O)O [compound 140] (H-[dS]H[dL]GQYAF[dF]-OH; N-terminus assumed)
33	0,81 DF/F0	286		CC(C)C[C@H](NC(=O)[C@@H]1CCCN1)C(=O)N1CCC[C@H]1C(=O)NCC(=O)N[C@@H](CCC(N)=O)C(=O)N[C@H](Cc1ccccc1)C(=O)N[C@@H](C)C(=O)N[C@@H](Cc1ccccc1)C(=O)N[C@@H](Cc1ccccc1)C(=O)O [compound 58] (H-PLPGQ[dF]AFF-OH; N-terminus assumed)
891	1,51 DF/F0	35.1		C[C@H](NC(=O)[C@H](Cc1ccc(O)cc1)NC(=O)[C@H](CCC(N)=O)NC(=O)CNC(=O)[C@@H]1CCCN1C(=O)[C@@H](Cc1ccc(O)cc1)NC(=O)[C@@H](N)Cc1ccc(O)cc1)C(=O)N[C@@H](Cc1ccccc1)C(=O)N[C@H](CO)C(=O)O [compound 88] (H-Y[dY]PGQYAF[dS]-OH; N-terminus assumed)
637	1,97 DF/F0	104		CC(C)C[C@H](N)C(=O)N[C@H](Cc1ccccc1)C(=O)NCC(=O)N1CCC[C@@H]1C(=O)N[C@@H](Cc1ccc(O)cc1)C(=O)NCC(=O)N[C@H](Cc1c[nH]c2ccccc12)C(=O)N[C@H](CO)C(=O)N[C@@H](C)C(=O)O [compound 138] (H-L[dF]G[dP]YG[dW][dS]A-OH; N-terminus assumed)
26	0,87 DF/F0	4450		C[C@H](NC(=O)[C@H](Cc1ccccc1)NC(=O)[C@H](C)NC(=O)[C@@H](N)Cc1ccccc1)C(=O)N[C@@H](Cc1ccccc1)C(=O)N[C@H](CO)C(=O)N[C@@H](Cc1ccccc1)C(=O)N[C@@H](C)C(=O)N[C@@H](Cc1ccc(O)cc1)C(=O)O [compound 117] (H-FAFAF[dS]FAY-OH; N-terminus assumed)
81	1,67 DF/F0	64.4		C[C@H](NC(=O)[C@@H](N)Cc1ccc(O)cc1)C(=O)N[C@@H](Cc1ccccc1)C(=O)N[C@H](CO)C(=O)N1CCC[C@H]1C(=O)NCC(=O)N[C@@H](CCC(N)=O)C(=O)N[C@@H](Cc1ccccc1)C(=O)N[C@H](CO)C(=O)O [compound 93] (H-YAF[dS]PGQF[dS]-OH; N-terminus assumed)
108	1,42 DF/F0	103		NC(=O)CC[C@H](NC(=O)CNC(=O)[C@@H]1CCCN1C(=O)[C@@H](Cc1ccc(O)cc1)NC(=O)[C@H](Cc1ccc(O)cc1)NC(=O)[C@H](CCC(N)=O)NC(=O)[C@H](N)Cc1ccccc1)C(=O)N[C@@H](Cc1ccc(O)cc1)C(=O)N[C@@H](Cc1ccc(O)cc1)C(=O)O [compound 137] (H-[dF]QY[dY]PGQYY-OH; N-terminus assumed)
30	1,51 DF/F0	271		CC(C)C[C@H](NC(=O)[C@@H]1CCCN1)C(=O)N[C@H](CCC(N)=O)C(=O)N[C@@H](Cc1ccc(O)cc1)C(=O)N1CCC[C@H]1C(=O)N[C@@H](Cc1ccc(O)cc1)C(=O)N[C@H](CS)C(=O)N[C@@H](CC(C)C)C(=O)N[C@H](Cc1ccccc1)C(=O)O [compound 149] (H-PL[dQ]YPY[dC]L[dF]-OH; N-terminus assumed)
34	1,73 DF/F0	108		CC(C)C[C@H](NC(=O)[C@@H](N)Cc1ccc(O)cc1)C(=O)N1CCC[C@H]1C(=O)NCC(=O)N[C@@H](CCC(N)=O)C(=O)N[C@@H](Cc1ccc(O)cc1)C(=O)N[C@@H](C)C(=O)N[C@H](C)C(=O)N[C@H](Cc1ccccc1)C(=O)O [compound 141] (H-YLPGQYA[dA][dF]-OH; N-terminus assumed)
